BindingDB's records for patent US11691969 (Ribon Therapeutics, 2023)

Biological target: T1, Protein mono-ADP-ribosyltransferase TIPARP (Homo sapiens, UniProt Q7Z3E1)
T1 sequence (Q7Z3E1 whole entry): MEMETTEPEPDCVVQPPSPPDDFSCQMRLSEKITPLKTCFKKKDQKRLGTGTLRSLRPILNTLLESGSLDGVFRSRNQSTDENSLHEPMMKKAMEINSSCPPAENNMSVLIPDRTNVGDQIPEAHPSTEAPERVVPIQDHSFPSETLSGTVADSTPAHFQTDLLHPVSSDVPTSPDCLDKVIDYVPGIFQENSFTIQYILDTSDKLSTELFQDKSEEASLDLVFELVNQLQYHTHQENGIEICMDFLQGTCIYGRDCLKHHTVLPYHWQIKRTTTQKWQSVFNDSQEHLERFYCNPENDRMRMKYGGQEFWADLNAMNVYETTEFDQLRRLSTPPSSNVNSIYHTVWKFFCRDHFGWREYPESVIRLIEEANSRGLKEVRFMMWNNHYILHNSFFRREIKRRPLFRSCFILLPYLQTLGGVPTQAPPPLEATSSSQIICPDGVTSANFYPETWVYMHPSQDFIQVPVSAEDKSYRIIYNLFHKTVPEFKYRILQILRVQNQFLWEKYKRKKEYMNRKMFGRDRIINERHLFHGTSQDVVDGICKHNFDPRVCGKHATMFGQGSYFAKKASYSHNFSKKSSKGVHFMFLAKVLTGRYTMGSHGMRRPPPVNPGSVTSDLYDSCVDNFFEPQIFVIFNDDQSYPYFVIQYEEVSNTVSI
Test: Enzymatic Assay
Description: Displacement of Probe A, a biotinylated probe binding to the TIPARP active site, was measured using a time-resolved fluorescence energy transfer (TR-FRET) assay. 20 nL of a dose response curve of each test compound was spotted in black 384-well polystyrene proxiplates (Perkin Elmer) using a Mosquito (TTP Labtech). Reactions were performed in a 8 μl volume by adding 6 μL of TIPARP and Probe A in assay buffer (20 mM HEPES pH=8, 100 mM NaCl, 0.1% bovine serum albumin, 2 mM DTT and 0.002% Tween20), incubating with test compound at 25° C. for 30 min, then adding 2 μL of ULight-anti 6×His and LANCE Eu-W1024 labeled streptavidin (Perkin Elmer). The final concentrations of TIPARP and Probe A were 6 nM and 2 nM, respectively. The final concentration of ULight-anti 6×His and LANCE Eu-W1024 labeled streptavidin were 4 nM and 0.25 nM, respectively. Reactions were incubated at 25° C. for an additional 30 min, then read on an Envision platereader equipped with a LANCE/DELFIA top mirror (Perkin Elmer) using excitation of 320 nm and emission of 615 nm and […] with a […]. The ratio of the 665/615 nm emission were calculated for each well to determine the amount of complex of TIPARP and Probe Ain each well. […]

C[C@@H](CO[C@H]1CCN(C2CCN(c3ncc(C(F)(F)F)cn3)CC2)C1=O)Nc1cn[nH]c(=O)c1Br [US11691969, Example 23]
IC50: in the range around 550 nM
